Data reported in PMC10355216, “The C-terminal tail of CSNAP attenuates the CSN complex” (Life Science Alliance, 2023).
Where no end group is shown, it is not given here. [ ]: non-standard residue; d: D form. Aib = CC(C)(N)C(=O)O

Tests used:
[1] = system: CSN^ΔCSNAP complex; assay: Peptide array screen of C-CSNAP peptides with rCSN^ΔCSNAP; format: binding; details: average of 5 experiments;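 also: Array-printed peptides incubated with 0.5 µM CSN^ΔCSNAP, bound complex detected by anti-CSN3 antibody plus HRP-linked secondary, spot intensity expressed relative to the parent reference peptide spot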
[2] = system: recombinant CSN complex; assay: Peptide array screen of C-CSNAP peptides with recombinant CSN (rCSN^WT); format: binding; details: for Average fold change: peptide array with rCSN, average of 3 experiments, left and right (n = 6), fold of C-CSNAP (A1); for Average fold change, intensities as fold of C-CSNAP (A1): rCSN^WT on INTAVIS Celluspots array, anti-CSN3 and HRP secondary antibody, average of six replicates (three independent experiments in duplicates);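 as to all read-outs here: densitometric signal of CSN bound to each synthesized peptide spot, with an antibody-only array lacking CSN run to exclude non-specific binding, higher values meaning stronger binding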
Procedure: To generate an optimized C-CSNAP peptide, we used the peptide array methodology. The array was designed to screen for the optimal peptide length, sequence, and stability (Fig 3A). A recombinant CSN complex was expressed, purified, and screened for binding to the peptide array by using an anti-CSN3 antibody. To rule out non-specific binding of the probing antibody, a control experiment was carried out without the addition of the CSN complex (Fig 3A right panel).
C-CSNAP peptide and its derivatives were synthesized on a microarray. The array was blocked and incubated with or without the COP9 signalosome complex (CSN) and probed using an anti-CSN3 antibody and HRP-conjugated secondary antibody. To assess non-specific binding of the antibodies to the array, anti-CSN3 and anti-GAR–HRP were used without the addition of the CSN. Signal intensity of each spot was measured and normalized to the intensity of the spot of C-CSNAP (A1). Measured values for each spot were averaged from six arrays and plotted with SEM. […] (A) A representative image of the peptide array (left) and the background (right). (B) Elongation of the C-terminal 16 amino acids (green) with one residue at a time based on the full-length sequence. […] (F) Single D-amino acid substitution at various positions.
Intensity values are normalized to the intensity of the 16AA C-CSNAP peptide (A1) on each array from three independent experiments in duplicates, and averages from the six replicates are calculated with SEM.
Optimization of C-CSNAP sequence for enhanced binding to recombinant CSN^ΔCSNAP was screened by printing the modified sequences of CSNAP or C-CSNAP (Phe to Trp, Asp to Glu, Ala screen, D-amino acid screen, N-α-methylation, and Aib incorporation on INTAVIS Celluspots array [2 × 384spots]). The array was blocked with 5% skim milk in TBS-0.5% Tween 20 (TBS-T) for 4 h at room temperature, washed three times in TBS-T, and then incubated with 0.5 μM CSN^ΔCSNAP in 5% milk–TBS-T. Bound CSN^ΔCSNAP was visualized by incubating with anti-CSN3 (ab79698) antibody (1:10,000, overnight) and goat-anti-rabbit-HRP secondary antibody (1:10,000, 1 h).

[3] = peptide array, rCSN^ΔCSNAP, left and right spots
[4] = peptide array with rCSN^ΔCSNAP, left and right (n = 10), fold of C-CSNAP (A1)

| Substance | Average fold change [1, 3] | Average fold change, intensities as fold of C-CSNAP (A1) [2] | also measured |
| --- | --- | --- | --- |
| DFFNEFEELFEEDDIQ [D46,49,52,53E] | 0.8013 fold of C-CSNAP (A1) |  | Average fold change [2]: 0.5885 fold |
| EFFNEFEELFEEEDIQ [D42,46,49,52,53,55E] | 1.2784 fold of C-CSNAP (A1) |  | Average fold change [2]: 0.4075 fold |
| GPYVDLDEAGGSTGLLMDLAANEKAVHADFFNDFEDLFDDDDIQ [B 5, CSNAP residues 14-57] |  | 1.1075 fold of C-CSNAP (A1) | Average fold change [1, 4]: 0.9816 fold |
| EFFNEFEELFEDEEIQ [D42,46,49,52,54,55E] | 1.1157 fold of C-CSNAP (A1) |  | Average fold change [2]: 0.2605 fold |
| DFFNDFEELFEEEEIQ [D49,52,53,54,55E] | 1.1796 fold of C-CSNAP (A1) |  | Average fold change [2]: 0.6658 fold |
| EFFNEFEDLFDEDDIQ [E 6, C-CSNAP, Asp to Glu substitution D42,46,53E] | 0.9657 fold of C-CSNAP (A1) | 0.7001 fold of C-CSNAP (A1) |  |
| DFFNEFEELFDDEDIQ [Position E15, C-CSNAP, Asp to Glu substitution D46,49,54E] | 0.8747 fold of C-CSNAP (A1) | 0.5680 fold of C-CSNAP (A1) |  |
| GLLMDLAANEKAVHADFFNDFEDLFDDDDIQ [Position A16, CSNAP residues 27-57] |  | 1.0167 fold of C-CSNAP (A1) | Average fold change [1, 4]: 1.2168 fold |
| DWWNDWEDLWDDDDIQ [D 2, C-CSNAP, Phe to Trp substitution F43,44,47,51W] | 0.9168 fold of C-CSNAP (A1) | 0.6800 fold of C-CSNAP (A1) |  |
| DFWNDWEDLWDDDDIQ [Position C22, C-CSNAP, Phe to Trp substitution F44,47,51W] | 1.2126 fold of C-CSNAP (A1) | 0.6112 fold of C-CSNAP (A1) |  |
| DFFNEFEELFEEEDIQ [D46,49,52,53,54E] | 1.3745 fold of C-CSNAP (A1) |  | Average fold change [2]: 0.5724 fold |
| DWWNDFEDLFDDDDIQ [Position C16, C-CSNAP, Phe to Trp substitution F43,44W] | 1.3233 fold of C-CSNAP (A1) | 0.7427 fold of C-CSNAP (A1) |  |
| EFFNDFEELFEEEEIQ [D42,49,52,53,54,55E] | 0.9207 fold of C-CSNAP (A1) |  | Average fold change [2]: 0.6132 fold |
| VDLDEAGGSTGLLMDLAANEKAVHADFFNDFEDLFDDDDIQ [B 2, CSNAP residues 17-57] |  | 0.7909 fold of C-CSNAP (A1) | Average fold change [1, 4]: 0.8221 fold |
| DFFNEFEDLFDDDEIQ [Position D20, C-CSNAP, Asp to Glu substitution D46,55E] | 1.3581 fold of C-CSNAP (A1) | 0.7799 fold of C-CSNAP (A1) |  |
| EFFNDFEDLFDDEDIQ [Position D14, C-CSNAP, Asp to Glu substitution D42,54E] | 1.0310 fold of C-CSNAP (A1) | 0.7060 fold of C-CSNAP (A1) |  |
| EFFNEFEDLFDDEDIQ [E 7, C-CSNAP, Asp to Glu substitution D42,46,54E] | 1.1480 fold of C-CSNAP (A1) | 0.6639 fold of C-CSNAP (A1) |  |

| Substance | Average fold change [1, 3] | Average fold change, intensities as fold of C-CSNAP (A1) [2] | also measured |
| --- | --- | --- | --- |
| DFFNEFEDLFDDEDIQ [Position D19, C-CSNAP, Asp to Glu substitution D46,54E] | 1.1127 fold of C-CSNAP (A1) | 0.6165 fold of C-CSNAP (A1) |  |
| EAGGSTGLLMDLAANEKAVHADFFNDFEDLFDDDDIQ [Position A22, CSNAP residues 21-57] |  | 1.1428 fold of C-CSNAP (A1) | Average fold change [1, 4]: 1.3163 fold |
| EFFNDFEELFDDDEIQ [Position E12, C-CSNAP, Asp to Glu substitution D42,49,55E] | 0.9711 fold of C-CSNAP (A1) | 0.6694 fold of C-CSNAP (A1) |  |
| DFFNDFEDLFDD[Aib]DIQ[Aib] [Position H18, C-CSNAP with Aib incorporation (54,58)] |  | 0.2987 fold of C-CSNAP (A1) | Average fold change, intensities as fold of C-CSNAP (A1) [1, 3]: 1.0167 fold; intensities as fold of C-CSNAP (A1), Experiment #1 left ([2]; rCSN^WT peptide array, replicate: Experiment #1, left array): 0.3071 fold of C-CSNAP (A1); intensities as fold of C-CSNAP (A1), Experiment #1 right ([2]; rCSN^WT peptide array, replicate: Experiment #1, right array): 0.2334 fold of C-CSNAP (A1); intensities as fold of C-CSNAP (A1), Experiment #2 left ([2]; rCSN^WT peptide array, replicate: Experiment #2, left array): 0.1973 fold of C-CSNAP (A1); intensities as fold of C-CSNAP (A1), Experiment #2 right ([2]; rCSN^WT peptide array, replicate: Experiment #2, right array): 0.2444 fold of C-CSNAP (A1); intensities as fold of C-CSNAP (A1), Experiment #3 left ([2]; rCSN^WT peptide array, replicate: Experiment #3, left array): 0.2003 fold of C-CSNAP (A1); intensities as fold of C-CSNAP (A1), Experiment #3 right ([2]; rCSN^WT peptide array, replicate: Experiment #3, right array): 0.6096 fold of C-CSNAP (A1) |
| EFFNDFEDLFEEDEIQ [D42,52,53,55E] | 1.0660 fold of C-CSNAP (A1) |  | Average fold change [2]: 0.6502 fold |
| DFFNDFEELFEEEDIQ [D49,52,53,54E] | 0.9844 fold of C-CSNAP (A1) |  | Average fold change [2]: 0.6224 fold |
| DFFNEFEDLFEDDDIQ [Position D17, C-CSNAP, Asp to Glu substitution D46,52E] | 1.1441 fold of C-CSNAP (A1) | 0.7655 fold of C-CSNAP (A1) |  |
| EFFNDFEELFDDEDIQ [Position E11, C-CSNAP, Asp to Glu substitution D42,49,54E] | 0.8932 fold of C-CSNAP (A1) | 0.6850 fold of C-CSNAP (A1) |  |
| AANEKAVHADFFNDFEDLFDDDDIQ [Position A10, CSNAP residues 33-57] |  | 1.0826 fold of C-CSNAP (A1) | Average fold change [1, 4]: 0.9871 fold |
| DFFNDFEDLFEEDDIQ [E 1, C-CSNAP, Asp to Glu substitution D52,53E] | 1.1244 fold of C-CSNAP (A1) | 0.6914 fold of C-CSNAP (A1) |  |
| DFFNDFEDLFDDDEIQ [D 9, C-CSNAP, Asp to Glu substitution D55E] | 1.0696 fold of C-CSNAP (A1) | 1.0265 fold of C-CSNAP (A1) |  |
| EFFNEFEELFEEEDIQ [D42,46,49,52,53, 54E] | 0.9285 fold of C-CSNAP (A1) |  | Average fold change [2]: 0.5691 fold |
| DFFNDFEELFEEDDIQ [Position E17, C-CSNAP, Asp to Glu substitution D49,52,53E] | 1.2373 fold of C-CSNAP (A1) | 0.6206 fold of C-CSNAP (A1) |  |
| LMDLAANEKAVHADFFNDFEDLFDDDDIQ [Position A14, CSNAP residues 29-57] |  | 0.9262 fold of C-CSNAP (A1) | Average fold change [1, 4]: 1.0726 fold |
| DLDEAGGSTGLLMDLAANEKAVHADFFNDFEDLFDDDDIQ [B 1, CSNAP residues 18-57] |  | 1.1704 fold of C-CSNAP (A1) | Average fold change [1, 4]: 0.9126 fold |
| DFFNEFEELFDDDDIQ [Position D16, C-CSNAP, Asp to Glu substitution D46,49E] | 1.2614 fold of C-CSNAP (A1) | 0.7250 fold of C-CSNAP (A1) |  |
| EFFNEFEDLFEDDDIQ [Position D12, C-CSNAP, Asp to Glu substitution D42,52E] | 1.0147 fold of C-CSNAP (A1) | 0.7025 fold of C-CSNAP (A1) |  |
